Test results: ChEMBL document CHEMBL1141099, “Discovery of N-(2,6-dimethylphenyl)-substituted semicarbazones as anticonvulsants: hybrid pharmacophore-based design” (2005)

Key:
Rattus norvegicus [1] = test: Number of rats protected at a dose of 30 mg/Kg when given oral at 0.5 hr upon maximal electroshock seizure; Total number of rats = 4; assay type: functional
Mus musculus [2] = test: Minimum dose required for anticonvulsant activity when given i.p., at 2 hr in mice upon subcutaneous strychnine seizure; assay type: functional
Rattus norvegicus [3] = test: Number of rats protected at a dose of 30 mg/Kg when given oral at 1 hr upon maximal electroshock seizure; Total number of rats = 4; assay type: functional
Mus musculus [4] = test: Minimum dose required for anticonvulsant activity when given i.p., at 0.5 hr in mice upon subcutaneous pentylenetetrazole seizure; assay type: functional
Rattus norvegicus [5] = test: Number of rats protected at a dose of 30 mg/Kg when given oral at 2 hr upon maximal electroshock seizure; Total number of rats = 4; assay type: functional
Mus musculus [6] = test: Minimum dose required for anticonvulsant activity when given i.p., at 0.5 hr in mice upon maximal electroshock seizure; assay type: functional
Rattus norvegicus [7] = test: Number of rats protected at a dose of 30 mg/Kg when given oral at 4 hr upon maximal electroshock seizure; Total number of rats = 4; assay type: functional
Mus musculus [8] = test: Minimum dose required for anticonvulsant activity when given i.p., at 0.5 hr in mice upon subcutaneous strychnine seizure; assay type: functional
Rattus norvegicus [9] = test: Number of rats protected at a dose of 30 mg/Kg when given oral at 0.25 hr upon maximal electroshock seizure; Total number of rats = 4; assay type: functional
Mus musculus [10] = test: Minimum dose required for anticonvulsant activity when given i.p., at 4 hr in mice upon maximal electroshock seizure; assay type: functional
Mus musculus [11] = test: Minimum dose required for anticonvulsant activity when given i.p., at 0.5 hr in mice upon neurotoxicity seizure using rotarod test; assay type: functional
Mus musculus [12] = test: Minimum dose required for anticonvulsant activity when given i.p., in mice upon neurotoxicity seizure using rotarod test
Mus musculus [13] = test: Mean sleeping time evaluated for CNS study using the pentobarbital-induced narcosis model at a dose of 100 mg/Kg when given i.p., in mice (No. of animals 6)
Rattus norvegicus [14] = test: Effect on GABA level in rat whole brain concentration after 2 hr post-treatment at a dose of 100 mg/Kg when given i.p.; Control 48.4; assay type: functional
Rattus norvegicus [15] = test: Effect on GABA level in rat whole brain concentration after 7 days post-treatment at a dose of 30 mg/Kg when given orally; Control 50.5; assay type: functional
Mus musculus [16] = test: Post treatment activity score for CNS study using a actophotometer at a dose of 100 mg/Kg after 1 hr when given i.p., in mice (No. of animals 6); Control (24h before) 224
Mus musculus [17] = test: Post treatment activity score for CNS study using a actophotometer at a dose of 100 mg/Kg after 0.5 hr when given i.p., in mice (No. of animals 6); Control (24h before) 224
[18] = biological target: 4-aminobutyrate aminotransferase, mitochondrial (Rattus norvegicus) (UniProt P50554); test: In vitro percentage inhibition activity against GABA-T enzyme at a concentration of 1.25 uM after 6 h
Sequence of 4-aminobutyrate aminotransferase, mitochondrial (Rattus norvegicus) (P50554 28-500 limits assumed): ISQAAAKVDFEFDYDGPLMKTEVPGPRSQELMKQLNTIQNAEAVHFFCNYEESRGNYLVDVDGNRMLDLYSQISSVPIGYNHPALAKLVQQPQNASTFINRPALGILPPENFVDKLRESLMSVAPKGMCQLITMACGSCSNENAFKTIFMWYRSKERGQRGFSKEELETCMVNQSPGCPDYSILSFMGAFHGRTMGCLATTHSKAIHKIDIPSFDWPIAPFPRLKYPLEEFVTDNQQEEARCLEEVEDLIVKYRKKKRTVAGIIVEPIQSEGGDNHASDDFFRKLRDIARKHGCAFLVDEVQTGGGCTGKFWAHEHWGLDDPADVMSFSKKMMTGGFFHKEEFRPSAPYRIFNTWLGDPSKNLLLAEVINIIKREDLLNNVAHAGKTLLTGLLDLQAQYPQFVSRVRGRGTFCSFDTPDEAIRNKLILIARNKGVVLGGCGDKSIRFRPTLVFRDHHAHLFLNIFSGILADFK

[19] = biological target: 4-aminobutyrate aminotransferase, mitochondrial (Rattus norvegicus) (UniProt P50554); test: In vitro percentage inhibition activity against GABA-T enzyme at a concentration of 1.25 uM after 4.5 h
[20] = biological target: 4-aminobutyrate aminotransferase, mitochondrial (Rattus norvegicus) (UniProt P50554); test: In vitro percentage inhibition activity against GABA-T enzyme at a concentration of 1.25 uM after 3 h
Rattus norvegicus [21] = species: Rattus norvegicus; test: Ex vitro percentage inhibition activity against GABA-T enzyme at a concentration of 1.25 uM after 3 h; assay type: functional
Rattus norvegicus [22] = species: Rattus norvegicus; test: Ex vitro percentage inhibition activity against GABA-T enzyme at a concentration of 1.25 uM after 6 h; assay type: functional
Rattus norvegicus [23] = species: Rattus norvegicus; test: Ex vitro percentage inhibition activity against GABA-T enzyme at a concentration of 1.25 uM after 4.5 h; assay type: functional

Row | Compound | Activity (Rattus norvegicus [1]) | STY seizure (Mus musculus [2]) [mg/kg] | Activity (Rattus norvegicus [3]) | PTZ seizure (Mus musculus [4]) [mg/kg] | Activity (Rattus norvegicus [5]) | MES (Mus musculus [6]) [mg/kg] | Activity (Rattus norvegicus [7]) | STY seizure (Mus musculus [8]) [mg/kg] | Activity (Rattus norvegicus [9]) | MES (Mus musculus [10]) [mg/kg] | NT (Mus musculus [11]) [mg/kg] | other results
1 | COc1ccc(/C=N/NC(=O)Nc2c(C)cccc2C)cc1 | 4 | 100 | 3 | 300 | 3 | 100 | 3 | 30 | 1 | 300 | 300 | –
2 | CCC1(c2ccccc2)C(=O)NC(=O)NC1=O [PHENOBARBITAL] | – | – | – | – | – | – | – | – | – | – | – | NT (Mus musculus [12]): 100 mg/kg; Time (Mus musculus [13]): 54 min
3 | CC(C)=NNC(=O)Nc1c(C)cccc1C | 4 | 100 | 4 | 300 | 3 | 100 | 2 | 100 | 3 | 300 | 300 | –
4 | CN1C(=O)CC(=O)N(c2ccccc2)c2cc(Cl)ccc21 [CLOBAZAM] | – | – | – | – | – | – | – | – | – | – | – | Activity (Rattus norvegicus [14]): 101 ug/100mg of tissue; Activity (Rattus norvegicus [15]): 110 ug/100mg of tissue
5 | Cc1cccc(C)c1NC(=O)N/N=C/c1ccccc1 | 3 | 100 | 3 | 300 | 3 | 100 | 4 | 30 | 1 | 100 | 300 | –
6 | CCCC(CCC)C(=O)O [VALPROIC ACID] | – | – | – | – | – | – | – | – | – | – | – | NT (Mus musculus [12]): 300 mg/kg
7 | C/C(CC(C)C)=N/NC(=O)Nc1c(C)cccc1C | 2 | 100 | 2 | – | 4 | 100 | 2 | 30 | 1 | 300 | – | –
8 | Cc1cccc(C)c1NC(=O)NN=C(c1ccccc1)c1ccccc1 | 1 | – | 1 | 300 | 1 | 100 | 0 | 300 | 1 | 300 | 300 | –
9 | C/C(=N\NC(=O)Nc1c(C)cccc1C)c1ccccc1 | 2 | 100 | 4 | 300 | 3 | 100 | 3 | 30 | 1 | 300 | – | –
10 | C/C(=N\NC(=O)Nc1c(C)cccc1C)c1ccc([N+](=O)[O-])cc1 | 2 | 300 | 2 | 300 | 3 | 300 | 1 | 100 | 1 | 300 | 300 | –
11 | Cc1cccc(C)c1NC(=O)NN=C1CCCCC1 | 1 | 300 | 2 | – | 4 | 100 | 3 | 100 | 1 | 300 | 300 | –
12 | Cc1cccc(C)c1NC(=O)N/N=C/c1ccc([N+](=O)[O-])cc1 | 1 | 100 | 2 | 300 | 1 | 100 | 1 | 30 | 1 | 300 | 300 | –
13 | Cc1cccc(C)c1NC(=O)NN=C(Cc1ccccc1)Cc1ccccc1 | 1 | – | 1 | – | 0 | 300 | 0 | 300 | 0 | 300 | 300 | –
14 | C/C(=N\NC(=O)Nc1c(C)cccc1C)c1cccc(N)c1 | 3 | 300 | 1 | – | 2 | 100 | 3 | 100 | 1 | 300 | 300 | –
15 | C/C(=N\NC(=O)Nc1c(C)cccc1C)c1ccccc1O | 1 | 300 | 2 | 300 | 3 | 100 | 4 | 100 | 3 | 300 | – | –
16 | Cc1cccc(C)c1NC(=O)N/N=C/c1ccccc1Cl | 1 | 100 | 1 | 300 | 1 | 100 | 4 | 30 | 2 | 300 | 300 | –
17 | Cc1cccc(C)c1NC(=O)NN=C1CCCC1 | 2 | – | 1 | 300 | 3 | 100 | 1 | – | 2 | 300 | 300 | –
18 | Cc1cccc(C)c1NC(=O)/N=N/c1c(O)[nH]c2ccc(F)cc12 | 1 | 100 | 1 | 300 | 1 | 100 | 3 | 30 | 1 | 300 | 300 | Activity (Mus musculus [16]): 194; Activity (Mus musculus [17]): 204
19 | Cc1cccc(C)c1NC(=O)N/N=C\c1ccco1 | 2 | 300 | 1 | 300 | 4 | 100 | 3 | 100 | 0 | 300 | 300 | –
20 | NNCCc1ccccc1 [PHENELZINE] | – | – | – | – | – | – | – | – | – | – | – | inhibition [18]: 62%; inhibition [19]: 75%; inhibition [20]: 0%; Inhibition (Rattus norvegicus [21]): 25%; Inhibition (Rattus norvegicus [22]): 65%; Inhibition (Rattus norvegicus [23]): 85%
